Laboratory results from ChEMBL document CHEMBL2311280, “Protein tyrosine phosphatase 1B inhibitory effect by dammarane-type triterpenes from hydrolyzate of total Gynostemma pentaphyllum saponins” (Bioorg Med Chem Lett, 2013).

These molecules were tested against T1, Tyrosine-protein phosphatase non-receptor type 1 (Homo sapiens, UniProt P18031) (assay: Inhibition of PTP1B (unknown origin)).
T1 sequence (P18031 whole entry): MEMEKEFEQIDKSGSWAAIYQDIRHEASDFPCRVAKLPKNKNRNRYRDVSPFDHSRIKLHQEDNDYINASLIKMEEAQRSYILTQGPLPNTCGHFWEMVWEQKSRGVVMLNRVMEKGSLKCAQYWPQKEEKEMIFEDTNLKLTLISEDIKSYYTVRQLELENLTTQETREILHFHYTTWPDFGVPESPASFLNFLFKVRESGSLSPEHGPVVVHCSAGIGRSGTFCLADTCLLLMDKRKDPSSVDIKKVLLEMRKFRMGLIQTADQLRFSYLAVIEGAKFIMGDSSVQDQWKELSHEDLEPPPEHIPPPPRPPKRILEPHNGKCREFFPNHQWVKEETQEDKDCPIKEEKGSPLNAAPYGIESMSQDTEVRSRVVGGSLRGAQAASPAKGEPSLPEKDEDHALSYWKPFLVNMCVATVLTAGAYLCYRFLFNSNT

`CC(=O)O[C@H]1CC[C@]2(C)[C@H]3CC[C@@H]4[C@@H](C5=C[C@H](CC(C)(C)O)OC5=O)CC[C@@]4(C)[C@]3(C)CC[C@H]2C1(C)C` [GYPENSAPOGENIN G] and `CC(C)(O)C[C@H]1C=C([C@H]2CC[C@]3(C)[C@@H]2CC[C@@H]2[C@@]4(C)CC[C@H](O)C(C)(C)[C@@H]4CC[C@]23C)C(=O)O1` [GYPENSAPOGENIN E] are within 1.5-fold of each other in IC50: 24.5 µM for the first, 23 µM for the second.

Compared with `CC(C)=C[C@H]1C=C([C@H]2CC[C@]3(C)[C@@H]2CC[C@@H]2[C@@]4(C)CC[C@H](O)C(C)(C)[C@@H]4CC[C@]23C)C(=O)O1` [GYPENSAPOGENIN D], `CC(C)(O)C[C@@H]1C=C([C@H]2CC[C@]3(C)[C@@H]2CC[C@@H]2[C@@]4(C)CC[C@H](O)C(C)(C)[C@@H]4CC[C@]23C)C(=O)O1` [GYPENSAPOGENIN F] is lower in IC50: greater than 50 µM for the first, 49 µM for the second.

Going from `C/C(=C/CCC(C)(C)O)[C@H]1CC[C@]2(C)[C@@H]1[C@H](O)C[C@@H]1[C@@]3(C)CC[C@H](O)C(C)(C)[C@@H]3CC[C@]12C` to `CC(C)=CCC[C@](C)(O)[C@H]1CC[C@]2(C)[C@@H]1[C@H](O)C[C@@H]1[C@@]3(C)CC[C@H](O)C(C)(C)[C@@H]3CC[C@]12C`, the IC50 falls from greater than 50 µM to 23.6 µM.

First: CC(C)=C[C@@H]1C[C@](O)([C@H]2CC[C@]3(C)[C@@H]2CC[C@@H]2[C@@]4(C)CC[C@H](O)C(C)(C)[C@@H]4CC[C@]23C)C(=O)O1
Second: CC(C)=C[C@H]1C[C@@](O)([C@H]2CC[C@]3(C)[C@@H]2CC[C@@H]2[C@@]4(C)CC[C@H](O)C(C)(C)[C@@H]4CC[C@]23C)C(=O)O1
The IC50 of the first is 3.3-fold higher: 27.8 µM for the first, 8.4 µM for the second.

`C=C(C)CCC[C@](C)(O)[C@H]1CC[C@]2(C)[C@@H]1[C@H](O)C[C@@H]1[C@@]3(C)CC[C@H](O)C(C)(C)[C@@H]3CC[C@]12C` and `C=C(C)[C@@H](O)CC[C@](C)(O)[C@H]1CC[C@]2(C)[C@@H]1[C@H](O)C[C@@H]1[C@@]3(C)CC[C@H](O)C(C)(C)[C@@H]3CC[C@]12C` cannot be ordered by IC50: greater than 50 µM for the first, greater than 50 µM for the second.

Going from `CC(C)=C1CC=C([C@H]2CC[C@]3(C)[C@@H]2CC[C@@H]2[C@@]4(C)CC[C@H](O)C(C)(C)[C@@H]4CC[C@]23C)C1=O` [GYPENSAPOGENIN C] to `CC1(C)[C@@H](O)CC[C@]2(C)[C@H]3CC[C@@H]4[C@@H](C(=O)O)CC[C@@]4(C)[C@]3(C)CC[C@@H]12`, the IC50 falls from greater than 50 µM to 13.1 µM. The second is the more potent here.

Compared with `CC(C)=CCC[C@@](O)(CO)[C@H]1CC[C@]2(C)[C@@H]1CC[C@@H]1[C@@]3(C)CC[C@H](O)C(C)(C)[C@@H]3CC[C@]12C`, `CC(C)=C1CC([C@H]2CC[C@]3(C)[C@@H]2CC[C@@H]2C4=C(CC[C@]23C)C(C)(C)[C@@H]2CC[C@H]4O2)=CC1=O` [GYPENSAPOGENIN B] is 1.6-fold higher in IC50: 15.2 µM for the first, 24.5 µM for the second. The first is the more potent here.
